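Dose response: 5 concentrations. Exposure: 48 h. Format: 96-well plates. Endpoint: linear interpolation; highest concentration if not reached. Here, GI50 denotes the concentration required for 50% inhibition of growth. TGI: concentration producing complete growth inhibition.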 A value given as a limit tells only on which side of the number the result lay.

The source of these data is PubChem BioAssay (NCI).

Common to all, as to assay: growth of human tumour cells (NCI), 48 h
The subject of assay [1] is UACC-257 melanoma.
The subject of assay [2] is K-562 leukemia.
For assay [3], the system named is HCT-15 colon.
Assay [4] deals with SK-MEL-2 melanoma.
Assay [5] has as its system RXF 393 renal.
The test system of assay [6] is NCI/ADR-RES ovarian.
Assay [7] deals with OVCAR-8 ovarian.
The test system of assay [8] is SW-620 colon.
For assay [9], the system named is T-47D breast.
In assay [10] the test system is RPMI-8226 leukemia.

Turning to `CC[C@H](NC(=O)[C@H]1CCCCN1C)C(=O)N(C)[C@H](C[C@@H](OC(C)=O)c1nc(C(=O)N[C@@H](Cc2ccccc2)C[C@H](C)C(=O)O)cs1)C(C)C`, the GI50 in [1] was above 14.3 µM; in assay [2], 0.00209 µM; in assay [3] it was 0.00933 µM; in [4] it was 0.00145 µM; in assay [5], 0.00391 µM; in assay [6], 0.0785 µM. For the same compound, the GI50 in assay [7] was 0.0166 µM; in assay [8] it was 0.00398 µM; in [9] it was 0.0058 µM; in assay [10] it was 0.00531 µM. In addition, the TGI in assay [1], in assay [2], in [3], in assay [4], in assay [5] and in [6] was above 14.3 µM each time. The TGI in assay [7], in [8], in assay [9] and in assay [10] was above 14.3 µM throughout.

For `CCC(CC)c1nc(Nc2ccc(C(=O)OC)cc2)c2ccccc2n1`, the GI50 is 9.73 µM in assay [1]; 7.39 µM in [2]; 11 µM in [3]; 9.39 µM in [4]; 8.34 µM in [5]; 24.3 µM in [6]. Also, the GI50 in assay [7] is 12.9 µM; in [8], 12.7 µM; in [9] it was 7.88 µM; in [10], 5.08 µM. Further, the TGI in assay [1] is 20 µM; in assay [2], above 31.6 µM; in assay [3], above 33.1 µM; in assay [4], 20 µM; in assay [5], 21.3 µM; in assay [6], above 34.7 µM. For the same compound, the TGI in assay [7] is above 31.4 µM; in assay [8], above 27.7 µM; in assay [9], 17.5 µM; in assay [10], 22.9 µM.

For `CCOC(=O)c1ccccc1OC(=O)NNc1ccccc1`, the GI50 is 5.61 µM in assay [1]; 0.225 µM in [2]; 0.862 µM in [3]; above 100 µM in assay [5]; 3.8 µM in assay [6]; 9.19 µM in [7]. Further, the GI50 in [8] is 12.4 µM; in assay [9], 0.892 µM; in [10], 1.11 µM. The TGI in [1] was above 100 µM; in [2], above 100 µM; in assay [3], above 100 µM; in assay [4], above 29.3 µM; in assay [5], above 100 µM; in assay [6], above 100 µM. In addition, the TGI in assay [7], in assay [8], in [9] and in assay [10] was above 100 µM throughout.

`CCCCCCCC/C=C/CCCCCCCC1=NC(C)(C)CN1CC(C)O` (stereo not given): the GI50 in assay [1] was 1.85 µM; in assay [2], 1.44 µM; in assay [3], 1.63 µM; in assay [4], 2.28 µM; in [5], 1.53 µM; in [6], 2.68 µM. The GI50 was 1.97 µM in assay [7], 1.8 µM in [8], 2.03 µM in assay [9] and 2.28 µM in assay [10]. The TGI in [1] turned out to be 3.54 µM; in [2], 3.27 µM; in [3] it was 3.27 µM; in [4], 5.21 µM; in assay [5] it was 3.39 µM; in assay [6], 6.9 µM. Besides, the TGI in assay [7] was 3.9 µM; in [8], 3.34 µM; in assay [9], 4.58 µM; in [10] it was 5.91 µM.

Turning to `COc1cc(/C=C2\C[C@H]3[C@@H]4CC=C5C[C@@H](O)CC[C@]5(C)[C@H]4CC[C@]3(C)[C@H]2O)ccc1OCCN1CCCC1`, the GI50 in [1] is 9.89 µM; in [2] it was 6.86 µM; in assay [3], 11.8 µM; in [4], 16.4 µM; in [5] it was 9.81 µM; in assay [6], 12.6 µM. Besides, the GI50 was 13.5 µM in [7], 23.7 µM in assay [8], 19.9 µM in [9] and 5.53 µM in [10]. In addition, the TGI in assay [1] is 19.8 µM; in assay [2], 16.5 µM; in assay [3], 38 µM; in [4], above 50 µM; in assay [5], 23.9 µM; in assay [6] it was 34.7 µM. For the same compound, the TGI is 27.2 µM in assay [7], above 50 µM in [8], above 50 µM in assay [9] and 25.5 µM in [10].

`CC[C@H]1CN2CCc3cc(OC)c(OC)cc3C2C[C@@H]1CC1NCCc2cc(OC)c(OC)cc21` (stereo not given in full): the TGI came to 0.258 µM in assay [1]; 0.0779 µM in [2]; 2.02 µM in assay [3]; 0.0542 µM in [4]; 0.131 µM in assay [5]; 1.19 µM in assay [6]. In addition, the TGI in assay [7] was 0.18 µM; in assay [8], 0.238 µM; in assay [9], 0.0773 µM; in assay [10], 0.128 µM. Besides, the GI50 in assay [2] was 0.0137 µM.
